We go through 8 compounds from patent US10093679B2, “Amino sulfonyl-based compounds, the preparation method therefor and use thereof” (SUZHOU VIGONVITA LIFE SCIENCES CO., LTD., priority 2014, dated 2018).

Where two headings read alike, the source gives them in different places.

The test system of test [1] is maximal electroshock seizure. Put plainly: Maximal electroshock seizure (MES) test on mice. The class given is in vivo. The following applies: 100 mg/kg intragastric. The text has this:
The Maximal Electroshock Seizure Test on Mice
MES (maximal electroshock seizure test) was used to evaluate whether the compounds have an effect against […] and thus to make preliminary evaluation of the efficacy of each compound in treating epilepsy. Multipurpose instrument for pharmacological and biological experiments (mode, YSD-4G) was used to conduct experiments under the condition of convulsive mode, 115V of stimulation voltage, 250 ms of stimulation time, 50 HZ AC voltage. Positive and negative electrodes were used to clamp the left and right ear of the mice, respectively, which were wetted by normal saline. The tonic hind limb extension seizure after stimulation was deemed as judgment standard of grand mal. The mice were randomly divided into groups. The compounds were given by intragastric administration based on the dose of 100 mg/kg.
A general note: Protection in the maximal electroshock model is a classic sign of anticonvulsant action.

For test [2], the system named is maximal electroshock seizure. The following applies: literature value, cited from earlier work.
Test [3] can be described thus: Influence on rats' serum total cholesterol and triglyceride. The class given is in vivo, SD rats. Also noted: total cholesterol / triglyceride: unit not given here. The following applies: for total cholesterol / triglyceride: rats' serum, 5 weeks after administration. The procedure:
Study on the Influence of the Compounds on the Rats' Total Cholesterol and Triglyceride
50 male SD rats with weight of 180˜200 g were randomly divided into groups with 8 in each group. […] 5 weeks after administration, the level of total cholesterol and triglyceride in rats' serum were determined and the results were shown in table 2.

Test [4] concerns the target T1, Human carbonic anhydrase II (CA-II) (Homo sapiens, UniProt P00918).
T1 construct: purchased Sigma
Put plainly: Inhibiting effect on carbonic anhydrase (CO2 hydration, bromothymol blue colour change). The class given is biochemical. The procedure:
Preparation Method of the Reagent
Chromogenic Buffer Solution:
HEPES was dissolved in distilled water to prepare a solution with a concentration of 10 mM; the pH was adjusted to 7.7 with 1 M Tris at 23° C.; bromothymol blue was dissolved in HEPES buffer solution with pH 7.7 to a concentration of 50 mg/L;
Saturated CO2-ice water was prepared by adding dry ice into icy distilled water.
Solution of CA-II enzyme was prepared into a concentration of 2 m/ml, and stored at −20° C.
Tested sample was prepared by using distilled water as solvent with various concentrations.
The time required for changing into yellow was recorded. The time required for the blank tube was recorded as t0, the time required for the standard tube was recorded as ts and the time required for the test tube was recorded as t. (t0−ts)/ts was normal activity of enzyme, and (t0−t)/t was the activity after affecting by the test compound.

Regarding `CN(C)S(=O)(=O)NCc1noc2ccccc12` [Example 9, N-[(benzo[d]isoxazol-3-yl)methyl]-N′,N′-dimethyl-sulfamide], the “Inhibition rate of epileptic seizure” value in test [1] (0.5 h after administration) is given as 44.4%; in test [1] (2 h after administration), 11.1%.

Take `NS(=O)(=O)NCc1noc2cc(Cl)ccc12` [Example 1, N-[(6-chloro-benzo[d]isoxazol-3-yl)methyl]-sulfamide]: the entries for the “Inhibition rate of epileptic seizure” value in test [1] (0.5 h after administration) and in test [1] (2 h after administration) were 66.7% and 50%, respectively.

For `NS(=O)(=O)NCc1csc2ccccc12` [JNJ-26990990], the results for the “Inhibition rate of epileptic seizure” value in test [2] (0.5 h) and in test [2] (2 h) were 20% and 60%, respectively.

Regarding `NS(=O)(=O)NCc1ccsc1Cl` [Example 13, N-[(2-chloro-3-thienyl)methyl]-sulfamide], in test [1] (0.5 h after administration), the “Inhibition rate of epileptic seizure” value came out at 37.5%.

Regarding `NS(=O)(=O)Cc1noc2ccccc12` [Zonisamide, reference compound], the entries for the “Inhibition rate of epileptic seizure” value in test [1] (0.5 h after administration), in test [1] (1.5 h after administration) and in test [1] (2 h after administration) were 33.3%, 16.7% and 16.7%, respectively.

For `CC1(C)O[C@@H]2[C@@H](CO[C@@]3(COS(N)(=O)=O)OC(C)(C)O[C@@H]23)O1` [Topiramate, reference compound], the “Inhibition rate of epileptic seizure” value in test [1] (0.5 h after administration) was 37.5%. In test [1] (1.5 h after administration), the “Inhibition rate of epileptic seizure” value amounted to 37.5%. Further, in test [3] (40 mg/kg intragastric), the total cholesterol is reported as 1.56 ± 0.19 and the triglyceride is 1.45 ± 0.34.

Usually IC50 stands for the concentration that inhibits the measured activity by half. In turn, `NS(=O)(=O)NCc1noc2ccccc12` [Example 3, N-[(benzo[d]isoxazol-3-yl)methyl]-sulfamide] returned a half-maximal inhibitory concentration (IC50) in test [4] of 154 µM. In addition, the “inhibiting effect on carbonic anhydrase compared with reference drugs (in words)” value in test [4] is “poorer inhibiting effect than topiramate and zonisamide”. Also, the “Inhibition rate of epileptic seizure” value was 88.9% in test [1] (0.5 h after administration), 66.7% in test [1] (1.5 h after administration) and 77.8% in test [1] (2 h after administration). The total cholesterol in test [3] (20 mg/kg intragastric) is on record as 1.64 ± 0.28; in test [3] (40 mg/kg intragastric) it was 1.53 ± 0.17; in test [3] (80 mg/kg intragastric), 1.32 ± 0.21. The triglyceride stood at 1.13 ± 0.24 in test [3] (20 mg/kg intragastric), 0.99 ± 0.16 in test [3] (40 mg/kg intragastric) and 0.84 ± 0.06 in test [3] (80 mg/kg intragastric). The “effect on the level of total cholesterol and triglyceride (in words)” value in test [3] (rats' serum, 20, 40, 80 mg/kg, 5 weeks) is “significantly decrease”.

Take `NS(=O)(=O)NCc1noc2cc(F)ccc12` [Example 2, N-[(6-fluoro-benzo[d]isoxazol-3-yl)methyl]-sulfamide]: in test [1] (2 h after administration), the “Inhibition rate of epileptic seizure” value was 33.3%.
